Earlier results on two molecules are cited in US7655259B2, “Delayed release carnitine” (SIGMA-TAU Industrie Farmaceutiche Riunite S.p.A, priority 1993, dated 2010).

Each structure is given as a SMILES string.

For data set [1] the following is noted: given orally, carnitine deficient patients.
For data set [2] the following is noted: in the human.

Turning to `C[N+](C)(C)CCCC(=O)[O-]` [GBB, Gamma-butyrobetaine], in data set [1], the “conversion to L-carnitine” value is recorded as “readily converted to L-carnitine”.

On to `C[N+](C)(C)CC(O)CC(=O)[O-]` [L-carnitine, 3-hydroxy-4-(trimethylamino-)butyrate], for which, in data set [2], the half-life entry is “approximately 30 minutes”.
